In US7935709B2, “2-quinazolinone compounds and methods of use” (Amgen Inc., priority 2006, dated 2011):

Columns and labels:
[1] = tested on: TNF-α secretion by THP1 cells; experiment: Lipopolysaccharide-Activated THP1 Cell TNF Production Assay (THP-cellular TNF release assay); format: cell-based; details: Homo sapiens, THP-1, LPS-activated THP1 cells
Procedure: Lipopolysaccharide-Activated THP1 Cell TNF Production Assay
THP1 cells are re-suspended in fresh THP1 media (RPMI 1640, 10% heat-inactivated FBS, 1XPGS, 1XNEM, plus 30 μM βME) at a concentration of 1E6/mL. One hundred microliters of cells per well were plated in a polystyrene 96-well tissue culture. One microgram per mL of bacterial LPS is prepared in THP1 media and is transferred to the wells. Test compounds are dissolved in 100% DMSO and are serially diluted 3 fold in a polypropylene 96-well microtiter plate (drug plate). HI control and LO control wells contain only DMSO. One microliter of test compound from the drug plate followed by 10 μL of LPS were transferred to the cell plate. The treated cells are induced to synthesize and secrete TNF-α at 37° C. for 3 h. Forty microliters of conditioned media are transferred to a 96-well polypropylene plate containing 110 μL of ECL buffer (50 mM Tris-HCl pH 8.0, 100 mM NaCl, 0.05% Tween 20, 0.05% NaN3 and 1% FBS) supplemented with 0.44 nM MAB610 monoclonal Ab (R&D Systems), 0.34 nM ruthenylated AF210NA polyclonal Ab (R&D Systems) and 44 μg/mL sheep anti-mouse M280 Dynabeads (Dynal). After a 2 h incubation at room temperature with shaking, the reaction is read on the ECL M8 Instrument (IGEN Inc.). A low voltage is applied to the ruthenylated TNF-α immune complexes, which in the presence of TPA (the active component in Origlo), results in a cyclical redox reaction generating light at […]. The amount of secreted TNF-αin the presence of compound compared with that in the presence of DMSO vehicle alone (HI control) is calculated using the formula: % control (POC)=(cpd−average LO)/(average HI−average LO)*100. Data (consisting of POC and inhibitor concentration in μM) is fitted to a 4-parameter equation (y=A+((B−A)/(1+((x/C)^D))), where A is the minimum y (POC) value, B is the maximum y (POC), C is the x (cpd concentration) at the point of inflection and D is the slope factor) using a Levenburg-Marquardt non-linear regression algorithm.

[2] = tested on: TNF production by monocytes; experiment: Lipopolysaccharide-Activated Monocyte TNF Production Assay (LPS induced TNF release); format: cell-based; details: Homo sapiens, LPS-activated adherent monocytes from PBMCs
Procedure: Lipopolysaccharide-Activated Monocyte TNF Production Assay
Test compounds were evaluated in vitro for the ability to inhibit the production of TNF by monocytes activated with bacterial lipopolysaccharide (LPS). Fresh residual source leukocytes (a byproduct of plateletpheresis) were obtained from a local blood bank, and peripheral blood mononuclear cells (PBMCs) were isolated by density gradient centrifugation on Ficol-Paque Plus (Pharmacia). PBMCs were suspended at 2×10^6/mL in DMEM supplemented to contain 2% FCS, 10 mM, 0.3 mg/mL […], 100 U/mL penicillin G and […] streptomycin sulfate (complete media). Cells were plated into Falcon flat bottom, 96 well culture plates (200 μL/well) and cultured overnight at 37° C. and 6% CO2. Non-adherent cells were removed by washing with 200 μl/well of fresh medium. Wells containing adherent cells (˜70% monocytes) were replenished with 100 μL of fresh medium.
Preparation of Test Compound Stock Solutions
Test compounds were dissolved in […]. Compound stock solutions were prepared to an initial concentration of […]. Stocks were diluted initially to 20-200 μM in complete media. Nine two-fold serial dilutions of each compound were then prepared in complete medium. Treatment of cells with test compounds and activation of TNF production with lipopolysaccharide.
One hundred microliters of each test compound dilution were added to microtiter wells containing adherent monocytes and 100 μL complete medium. Monocytes were cultured with test compounds for 60 min at which time 25 μL of complete medium containing 30 ng/mL lipopolysaccharide from E. coli K532 were added to each well. Cells were cultured an additional 4 hrs. Culture supernatants were then removed and TNF presence in the supernatants was quantified using an ELISA.
Flat bottom, 96 well Corning High Binding ELISA plates were coated overnight (4° C.) with 150 μL/well of 3 μg/mL murine anti-human TNF-α MAb (R&D Systems #MAB210). Wells were then blocked for 1 h at room temperature with 200 μL/well of CaCl2-free ELISA buffer supplemented to contain 20 mg/mL BSA (standard ELISA buffer: […], 150 mM NaCl, 2 mM CaCl2, 0.15 mM thimerosal, pH 7.4). Plates were washed and replenished with 100 μL of test supernatants (diluted 1:3) or standards. Standards consisted of eleven 1.5-fold serial dilutions from a stock of 1 ng/mL recombinant human TNF (R&D Systems). Plates were incubated at room temperature for 1 h on orbital shaker (300 rpm), washed and replenished with 100 μL/well of 0.5 μg/mL goat anti-human TNF-α(R&D systems #AB-210-NA) biotinylated at a 4:1 ratio. Plates were incubated for 40 min, washed and replenished with 100 μL/well of alkaline phosphatase-conjugated streptavidin (Jackson ImmunoResearch #016-050-084) at 0.02 μg/mL. Plates were incubated 30 min, washed and replenished with 200 μL/well of 1 mg/mL of p-nitrophenyl phosphate. After 30 min, plates were read at 405 nm on a Vmax plate reader.
Standard curve data were fit to a second order polynomial and unknown TNF-α concentrations determined from their OD by solving this equation for concentration. TNF concentrations were then plotted vs. test compound concentration using a second order polynomial. This equation was then used to calculate the concentration of test compounds causing a 50% reduction in TNF production.

IC50 [1] [µM] | IC50 [2] [µM] | Compound
≤ 2.5 | ≤ 25 | O=c1ncc2cc(Cl)ccc2n1Cc1ccccc1 [Example 1, 1-Benzyl-6-chloroquinazolin-2-(1H)-one]
≤ 2.5 | ≤ 25 | COc1ccc(CN2Cc3cc(-c4cc(C(=O)NC5CC5)ccc4C)ccc3NC2=O)cc1 [Example 2, 3-(3-(4-Methoxybenzyl)-2-oxo-1,2,3,4-tetrahydroquinazolin-6-yl)-N-cyclopropyl-4-methylbenzamide]
 | ≤ 25 | Cc1ccc(C(=O)NC2CC2)cc1-c1ccc2c(cnc(=O)n2-c2ccccc2Cl)c1 [Example 3]
≤ 2.5 | ≤ 25 | Cc1ccncc1-c1ccc2c(c1)CNC(=O)N2c1ccccc1Cl [Example 4, 1-(2-Chlorophenyl)-6-(4-methylpyridin-3-yl)-3,4-dihydroquinazolin-2(1H)-one]
 | ≤ 25 | Cc1ccc(C(=O)NC2CC2)cc1-c1ccc2c(c1)CNC(=O)N2c1ccccc1C [Example 5, N-Cyclopropyl-4-methyl-3-(2-oxo-1-o-tolyl-1,2,3,4-tetrahydroquinazolin-6-yl)benzamide]
 | ≤ 25 | Cc1ccc(C(=O)NC2CC2)cc1-c1ccc2c(cnc(=O)n2-c2ccccc2C)c1 [Example 6, N-Cyclopropyl-4-methyl-3-(2-oxo-1-o-tolyl-1,2-dihydroquinazolin-6-yl)benzamide]
 | ≤ 25 | Cc1ccc(C(=O)NC2CC2)cc1-c1ccc2c(cnc(=O)n2CCN2CCOCC2)c1 [Example 8, N-Cyclopropyl-4-methyl-3-(1-(2-morpholinoethyl)-2-oxo-1,2-dihydroquinazolin-6-yl)benzamide]
 | ≤ 25 | Cc1ccc(C(=O)NC2CC2)cc1-c1ccc2c(cnc(=O)n2C2CCN(C(=O)OC(C)(C)C)CC2)c1 [Example 10, tert-Butyl 4-(6-(5-(cyclopropylcarbamoyl)-2-methylphenyl)-2-oxoquinazolin-1(2H)-yl)piperidine-1-carboxylate]
 | ≤ 25 | Cc1ccc(C(=O)NC2CC2)cc1-c1ccc2c(c1)CNC(=O)N2c1ccccc1Cl [Example 11, 3-(1-(2-chlorophenyl)-2-oxo-1,2,3,4-tetrahydro-6-quinazolinyl)-N-cyclopropyl-4-methylbenzamide]
≤ 2.5 | ≤ 25 | Cc1ccc(C(=O)NC2CC2)cc1-c1cnc2c(c1)CNC(=O)N2c1ccccc1Cl [Example 12, 3-(1-(2-chlorophenyl)-2-oxo-1,2,3,4-tetrahydropyrido[2,3-d]pyrimidin-6-yl)-N-cyclopropyl-4-methylbenzamide]
 | ≤ 25 | Cc1ccc(C(=O)NC2CC2)cc1-c1ccc2c(cnc(=O)n2C2CCOCC2)c1 [Example 13, N-cyclopropyl-4-methyl-3-(2-oxo-1-(tetrahydro-2H-pyran-4-yl)-1,2-dihydro-6-quinazolinyl)benzamide]
